Experimental data from patent US12077503B2, “Substituted cyclic amides and their use as herbicides” (FMC CORPORATION, priority 2015, dated 2024).

Columns and labels:
Format in all cases: in vivo
[1] = test system: corn (Zea mays); assay: Test G Pre-Emergence Protocol; conditions: Zea mays, pre-emergence, 312 h, evaluated after 13 days; for plant injury at 15.625 g/ha: 15.625 g ai/ha; for plant injury at 15.625 g/ha / plant injury at 250 g/ha: read-out: Corn damage rating (100=total damage to plant; 0=no damage to plant); for plant injury at 62.5 g/ha: 62.5 g ai/ha, 100=total damage to plant, 0=no damage to plant, read-out: Corn damage rating; for plant injury at 250 g/ha: 250 g ai/ha
In short: (§1)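 Herbicidal effect was rated 13 days post-application on a scale where 100 equals total damage. Spraying took place the day after sowing, using 15.625, 62.5 or 250 g/ha of compound in a 50:50 acetone/water solution with 0.5% Tween 20.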

[2] = test system: velvetleaf (Abutilon theophrasti); assay: Test G Pre-Emergence Protocol; conditions: Abutilon theophrasti, pre-emergence, 312 h, evaluated after 13 days; for pest or weed control at 15.625 g/ha: 15.625 g ai/ha; for pest or weed control at 15.625 g/ha / pest or weed control at 250 g/ha: read-out: Velvetleaf damage rating (100=total damage to plant; 0=no damage to plant); for pest or weed control at 62.5 g/ha: 62.5 g ai/ha, 100=total damage to plant, 0=no damage to plant, read-out: Velvetleaf damage rating; for pest or weed control at 250 g/ha: 250 g ai/ha
In short: as §1

[3] = test system: redroot pigweed (Amaranthus retroflexus); assay: Test G Pre-Emergence Protocol; conditions: Amaranthus retroflexus, pre-emergence, 312 h, evaluated after 13 days; for pest or weed control at 15.625 g/ha: 15.625 g ai/ha; for pest or weed control at 15.625 g/ha / pest or weed control at 250 g/ha: read-out: Pigweed, Redroot damage rating (100=total damage to plant; 0=no damage to plant); for pest or weed control at 62.5 g/ha: 62.5 g ai/ha, 100=total damage to plant, 0=no damage to plant, read-out: Pigweed, Redroot damage rating; for pest or weed control at 250 g/ha: 250 g ai/ha
In short: as §1

[4] = test system: giant foxtail (Setaria faberi); assay: Test G Pre-Emergence Protocol; conditions: Setaria faberi, pre-emergence, 312 h, evaluated after 13 days; for pest or weed control at 15.625 g/ha: 15.625 g ai/ha; for pest or weed control at 15.625 g/ha / pest or weed control at 250 g/ha: read-out: Foxtail, Giant damage rating (100=total damage to plant; 0=no damage to plant); for pest or weed control at 62.5 g/ha: 62.5 g ai/ha, 100=total damage to plant, 0=no damage to plant, read-out: Foxtail, Giant damage rating; for pest or weed control at 250 g/ha: 250 g ai/ha
In short: as §1

[5] = test system: barnyardgrass (Echinochloa crus-galli); assay: Test G Pre-Emergence Protocol; conditions: Echinochloa crus-galli, pre-emergence, 312 h, evaluated after 13 days; for pest or weed control at 15.625 g/ha: 15.625 g ai/ha; for pest or weed control at 15.625 g/ha / pest or weed control at 250 g/ha: read-out: Barnyardgrass damage rating (100=total damage to plant; 0=no damage to plant); for pest or weed control at 62.5 g/ha: 62.5 g ai/ha, 100=total damage to plant, 0=no damage to plant, read-out: Barnyardgrass damage rating; for pest or weed control at 250 g/ha: 250 g ai/ha
In short: as §1

[6] = test system: ivy-leaved morning glory (Ipomoea hederacea); assay: Test G Pre-Emergence Protocol; conditions: Ipomoea, pre-emergence, 312 h, evaluated after 13 days; for pest or weed control at 15.625 g/ha: 15.625 g ai/ha; for pest or weed control at 15.625 g/ha / pest or weed control at 250 g/ha: read-out: Morningglory, Ivy-leaved damage rating (100=total damage to plant; 0=no damage to plant); for pest or weed control at 62.5 g/ha: 62.5 g ai/ha, 100=total damage to plant, 0=no damage to plant, read-out: Morningglory, Ivy-leaved damage rating; for pest or weed control at 250 g/ha: 250 g ai/ha
In short: as §1

[7] = test system: corn (Zea mays); assay: Test G Post-Emergence Protocol; conditions: Zea mays, post-emergence, 312 h, read-out: Corn damage rating; for plant injury at 15.625 g/ha: 15.625 g ai/ha, evaluated after 13 days (100=total damage to plant; 0=no damage to plant); for plant injury at 62.5 g/ha: 62.5 g ai/ha; for plant injury at 62.5 g/ha / plant injury at 250 g/ha: evaluated after 13 days, 100=total damage to plant, 0=no damage to plant; for plant injury at 250 g/ha: 250 g ai/ha
In short: (§2)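 Damage was rated 13 days after treatment from 0 (none) to 100 (plant killed). Compound was applied as a spray at 15.625, 62.5 or 250 g/ha in 50:50 acetone/water containing 0.5% Tween 20, onto 8-day-old potted plants kept in a glasshouse (24/16 °C, 14 h light, 65% humidity).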

[8] = test system: velvetleaf (Abutilon theophrasti); assay: Test G Post-Emergence Protocol; conditions: Abutilon theophrasti, post-emergence, 312 h, read-out: Velvetleaf damage rating; for pest or weed control at 15.625 g/ha: 15.625 g ai/ha, evaluated after 13 days (100=total damage to plant; 0=no damage to plant); for pest or weed control at 62.5 g/ha: 62.5 g ai/ha; for pest or weed control at 62.5 g/ha / pest or weed control at 250 g/ha: evaluated after 13 days, 100=total damage to plant, 0=no damage to plant; for pest or weed control at 250 g/ha: 250 g ai/ha
In short: as §2

[9] = test system: redroot pigweed (Amaranthus retroflexus); assay: Test G Post-Emergence Protocol; conditions: Amaranthus retroflexus, post-emergence, 312 h, read-out: Pigweed, Redroot damage rating; for pest or weed control at 15.625 g/ha: 15.625 g ai/ha, evaluated after 13 days (100=total damage to plant; 0=no damage to plant); for pest or weed control at 62.5 g/ha: 62.5 g ai/ha; for pest or weed control at 62.5 g/ha / pest or weed control at 250 g/ha: evaluated after 13 days, 100=total damage to plant, 0=no damage to plant; for pest or weed control at 250 g/ha: 250 g ai/ha
In short: as §2

[10] = test system: giant foxtail (Setaria faberi); assay: Test G Post-Emergence Protocol; conditions: Setaria faberi, post-emergence, 312 h, read-out: Foxtail, Giant damage rating; for pest or weed control at 15.625 g/ha: 15.625 g ai/ha, evaluated after 13 days (100=total damage to plant; 0=no damage to plant); for pest or weed control at 62.5 g/ha: 62.5 g ai/ha
In short: as §2

[11] = test system: barnyardgrass (Echinochloa crus-galli); assay: Test G Post-Emergence Protocol; conditions: Echinochloa crus-galli, post-emergence, 312 h, read-out: Barnyardgrass damage rating; for pest or weed control at 15.625 g/ha: 15.625 g ai/ha, evaluated after 13 days (100=total damage to plant; 0=no damage to plant); for pest or weed control at 62.5 g/ha: 62.5 g ai/ha; for pest or weed control at 62.5 g/ha / pest or weed control at 250 g/ha: evaluated after 13 days, 100=total damage to plant, 0=no damage to plant; for pest or weed control at 250 g/ha: 250 g ai/ha
In short: as §2

[12] = test system: ivy-leaved morning glory (Ipomoea hederacea); assay: Test G Post-Emergence Protocol; conditions: Ipomoea, post-emergence, 312 h, read-out: Morningglory, Ivy-leaved damage rating; for pest or weed control at 15.625 g/ha: 15.625 g ai/ha, evaluated after 13 days (100=total damage to plant; 0=no damage to plant); for pest or weed control at 62.5 g/ha: 62.5 g ai/ha; for pest or weed control at 62.5 g/ha / pest or weed control at 250 g/ha: evaluated after 13 days, 100=total damage to plant, 0=no damage to plant; for pest or weed control at 250 g/ha: 250 g ai/ha
In short: as §2

[13] = evaluated after 13 days, 100=total damage to plant, 0=no damage to plant

| SMILES | plant injury at 15.625 g/ha [1] | plant injury at 62.5 g/ha [1] | plant injury at 250 g/ha [1] | pest or weed control at 15.625 g/ha [2] | pest or weed control at 62.5 g/ha [2] | pest or weed control at 250 g/ha [2] | pest or weed control at 15.625 g/ha [3] | pest or weed control at 62.5 g/ha [3] | pest or weed control at 250 g/ha [3] | pest or weed control at 15.625 g/ha [4] | pest or weed control at 62.5 g/ha [4] | pest or weed control at 250 g/ha [4] | pest or weed control at 15.625 g/ha [5] | pest or weed control at 62.5 g/ha [5] | pest or weed control at 250 g/ha [5] | pest or weed control at 15.625 g/ha [6] | pest or weed control at 62.5 g/ha [6] | pest or weed control at 250 g/ha [6] | plant injury at 15.625 g/ha [7] | plant injury at 62.5 g/ha [7] | further results |
| --- | --- | --- | --- | --- | --- | --- | --- | --- | --- | --- | --- | --- | --- | --- | --- | --- | --- | --- | --- | --- | --- |
| CCOc1ccc(C2CN(C)C(=O)C2C(=O)Nc2cccc(F)c2F)cc1F (centres unmarked) [Compound 1717] | 0% | 0% | 0% | 0% | 10% | 0% | 0% | 10% | 20% | 60% | 90% | 90% | 0% | 40% | 90% | 0% | 0% | 0% | 0% | 0% | plant injury at 250 g/ha [7]: 10%; pest or weed control at 15.625 g/ha [8]: 0%; pest or weed control at 62.5 g/ha [8]: 0%; pest or weed control at 250 g/ha [8]: 0%; pest or weed control at 15.625 g/ha [9]: 0%; pest or weed control at 62.5 g/ha [9]: 0%; pest or weed control at 250 g/ha [9]: 0%; pest or weed control at 15.625 g/ha [10]: 30%; pest or weed control at 62.5 g/ha [10, 13]: 70%; pest or weed control at 250 g/ha ([10]; 250 g ai/ha, evaluated after 13 days, 100=total damage to plant, 0=no damage to plant): 80%; pest or weed control at 15.625 g/ha [11]: 0%; pest or weed control at 62.5 g/ha [11]: 60%; pest or weed control at 250 g/ha [11]: 70%; pest or weed control at 15.625 g/ha [12]: 0%; pest or weed control at 62.5 g/ha [12]: 0%; pest or weed control at 250 g/ha [12]: 0% |
| COc1ccc(C2CN(C)C(=O)C2C(=O)Nc2cccc(F)c2F)cc1C (centres unmarked) [Compound 1688] | 0% | 50% | 70% | 10% | 0% | 50% | 30% | 20% | 60% | 70% | 80% | 90% | 50% | 70% | 90% | 0% | 0% | 10% | 0% | 30% | plant injury at 250 g/ha [7]: 60%; pest or weed control at 15.625 g/ha [8]: 0%; pest or weed control at 62.5 g/ha [8]: 0%; pest or weed control at 250 g/ha [8]: 10%; pest or weed control at 15.625 g/ha [9]: 0%; pest or weed control at 62.5 g/ha [9]: 0%; pest or weed control at 250 g/ha [9]: 10%; pest or weed control at 15.625 g/ha [10]: 60%; pest or weed control at 62.5 g/ha [10, 13]: 80%; pest or weed control at 15.625 g/ha [11]: 30%; pest or weed control at 62.5 g/ha [11]: 70%; pest or weed control at 250 g/ha [11]: 90%; pest or weed control at 15.625 g/ha [12]: 0%; pest or weed control at 62.5 g/ha [12]: 20%; pest or weed control at 250 g/ha [12]: 60% |
